The text below walks through data of patent publication US20230117757A1, “COENZYME Q PRODUCTION ACCELERATOR AND METHOD FOR ACCELERATING COENZYME Q PRODUCTION” (priority 2020, published 2023).

SMILES strings stand for the structures.

The assay deals with HEK293 cells (human embryonic kidney cells). Nature of the assay: coenzyme Q10 production in mitochondria of HEK293 cells cultured with nicotinamide mononucleotide, quantified by LC-MS. Conditions: HEK293 cells cultured three days in DMEM medium with 1 mM or 2.5 mM β-nicotinamide mononucleotide daily added; control 0 mM. The format is cell-based. On the procedure: To examine a production promoting effect of coenzyme Q10 caused by nicotinamide mononucleotide, HEK293 cells (human embryonic kidney cells) were cultured for three days (37° C., 5% CO2) in DMEM medium containing β-nicotinamide mononucleotide with a predetermined concentration (0 mM (control), 1 mM, and 2.5 mM daily added). Three days after the first day of culture, mitochondria were isolated from the HEK293 cells, and contained amounts of each of the reduced form (ubiquinol) and the oxidized form (ubiquinone) of coenzyme Q10 in the mitochondria were quantified by LC-MS method (LC column: KINETEX C18 column (Phenomenex), MS: Shimadzu LCMS-8060 (Shimadzu Corporation), eluent: 10 mM ammonium formate in Methanol, flow rate: 0.5 mL/minute, detection: MS/MS analysis by multiple reaction monitoring (MRM) method; Q10H2 883.6→197.15 m/z, Q10 881.4→197.15 m/z, Q9H2 815.6→197.15 m/z, Q9 813.6→197.15 m/z, Q8H2 747.6→197.15 m/z, Q8 745.6→197.15 m/z) (column: ODS, column temperature: 40° C., eluent: 70% acetonitrile/methanol (1:1) and 30% 0.05 M ammonium formate (prepared to be pH 7.2 with 10% ammonia water), flow rate: 1.0 mL/minute, detection: UV276 nm). […]

With `NC(=O)c1ccc[n+]([C@@H]2O[C@H](COP(=O)(O)O)[C@@H](O)[C@H]2O)c1` [nicotinamide mononucleotide], the “sum amount of the reduced form and the oxidized form of coenzyme Q10 in the mitochondria, change vs control” value was “approximately doubled”.
